Test results taken from EPA's ToxValDB 9.5.

Tested on: Rattus norvegicus
Settings: for LOEL / NOEL: oral, gavage
[1] = reproduction developmental, duration: 28 days, inhalation, M, Wistar, generation: P0, P0: Whole Body: Body Weight Change
[2] = short-term, duration: 28 days, inhalation, F, Wistar, Kidney: Creatinine (CREAT)
[3] = short-term, duration: 28 days, inhalation, F, Wistar, Kidney: Creatinine (CREAT) + Multi-Organ: Gamma-Glutamyl Transferase (GGT)
[4] = short-term, duration: 28 days, inhalation, F, Wistar, Kidney: Fluoride, Total Urinary Excretion + Kidney: Fluoride, Urine + Kidney: Urinary Fluoride/Creatinine Ratio + Liver: Liver Weight, …
[5] = short-term, duration: 28 days, inhalation, F, Wistar, Liver: Liver Weight, Absolute + Liver: Liver Weight, Relative + Lung: Lung Histopathology + Lung: Lung Weight, Absolute + Lung: Lung Weight…
[6] = short-term, duration: 28 days, inhalation, F, Wistar, Liver: Total Bilirubin (TBILI)
[7] = short-term, duration: 28 days, inhalation, M, Wistar, Kidney: Creatinine (CREAT) + Whole Body: Body Weight Change + Whole Body: Food Conversion Efficiency + Whole Body: Food Intake
[8] = short-term, duration: 28 days, inhalation, M, Wistar, Kidney: Fluoride, Total Urinary Excretion + Kidney: Fluoride, Urine + Kidney: Urinary Fluoride/Creatinine Ratio + Lung: Lung Histopathology…
[9] = short-term, duration: 28 days, inhalation, M, Wistar, Liver: Albumin (A) + Liver: Triglycerides (TRIG) + Multi-Organ: Cholesterol, Total + Multi-organ: Glucose (GLU)
[10] = short-term, duration: 28 days, inhalation, M, Wistar, Liver: Albumin (A) + Multi-Organ: Glucose (GLU) + Renal: Fluoride, Total Urinary Excretion + Renal: Fluoride, Urine + Renal: Fluoride/…
[11] = short-term, duration: 28 days, inhalation, M, Wistar, Lung: Lung Histopathology + Lung: Lung Weight, Absolute + Lung: Lung Weight, Relative + Spleen: Spleen Weight, Absolute + Spleen: Spleen …
[12] = short-term, duration: 28 days, inhalation, M, Wistar, Whole Body: Body Weight Change
[13] = subchronic, duration: 91 days, inhalation, F, Wistar, Blood: Albumin/Globulin (A/G) Ratio + Liver: Liver Weight, Relative + Multi-Organ: Acyl-CoA Oxidase Activity
[14] = subchronic, duration: 91 days, inhalation, F, Wistar, Kidney: Kidney Weight, Relative + Liver: Albumin (A)
[15] = subchronic, duration: 91 days, inhalation, M, Wistar, Blood: Mean Corpuscular Hemoglobin (MCH) + Liver: Albumin (A) + Liver: Alkaline Phosphatase (ALP) + Liver: Cholesterol (CHOL), Total + Liver…
[16] = subchronic, duration: 91 days, inhalation, M, Wistar, Blood: Mean Corpuscular Hemoglobin (MCH), Recovery + Blood: Mean Corpuscular Volume (MCV) + Blood: Platelet Count (PLT), Recovery + Blood: …
[17] = reproduction developmental, duration: 28 days, inhalation, M, Sprague-Dawley, generation: P0, P0: Other Systems: Bone: Bone Histopathology + P0: Other Systems: Esophagus: Esophagus Histopathology + P0: Other Systems: Eye: Eye …
[18] = reproduction developmental, duration: 50 days, inhalation, F, Sprague-Dawley, generation: P0, P0: Other Systems: Bone: Bone Histopathology + P0: Other Systems: Esophagus: Esophagus Histopathology + P0: Other Systems: Eye: Eye …
[19] = short-term, duration: 3 weeks, inhalation, M/F, Alpk:Albino, Whole Body: Body Weight Change + Whole Body: Clinical Observations
[20] = chronic, duration: 92 days, F, Wistar, kidney: relative kidney weight
[21] = chronic, duration: 92 days, M, Wistar, liver: relative liver weight
[22] = short-term, duration: 28 days, F, Wistar, kidney: absolute kidney weight + kidney: relative kidney weight + liver: absolute liver weight + liver: relative liver weight
[23] = short-term, duration: 28 days, M, Wistar, adrenal gland: absolute adrenal gland weight + adrenal gland: relative adrenal gland weight + testis: relative testis weight + thymus: …
[24] = short-term, duration: 28 days, M, Wistar, liver: relative liver weight + spleen: absolute spleen weight

O=C(C(F)(F)C(F)(F)F)C(F)(C(F)(F)F)C(F)(F)F [Perfluoro-2-methyl-3-pentanone]
NOAEL (developmental, duration: 13 days, inhalation, M/F, Sprague-Dawley, generation: F1, F1: Uterus: Resorptions, Early + F1: Uterus: Resorptions, Late + F1: Whole Body: Fetal Alterations, Total): 38800 mg/m3 | NOAEL (reproduction developmental, duration: 4 days, inhalation, F, Wistar, generation: F1, F1: Whole Body: Body Weight Change + F1: Whole Body: Body Weight, Absolute + F1: Whole Body: Clinical Observations + F1: Whole Body: Live …): 38800 mg/m3 | NOAEL (reproduction developmental, duration: 4 days, inhalation, F, Wistar, generation: P0, P0: Uterus: Estrous Cycle + P0: Whole Body: Body Weight Change + P0: Whole Body: Body Weight, Absolute + P0: Whole Body: Clinical …): 38800 mg/m3 | NOAEL (reproduction developmental, duration: 13 days, inhalation, F, Sprague-Dawley, generation: P0, P0: Ovary: Corpora Lutea + P0: Ovary: Ovary, Necropsy + P0: Placenta: Normal Placenta + P0: Uterus: Implantation + P0: Uterus: Uterine …): 38800 mg/m3 | NOAEL (reproduction developmental, duration: 28 days, inhalation, M, Wistar, generation: P0, P0: Epididymis: Epididymis Weight, Absolute + P0: Testis: Testis Weight, Absolute + P0: Whole Body: Body Weight, Absolute + P0: Whole Body: …): 38800 mg/m3 | LOAEL [1]: 12900 mg/m3 | NOAEL [1]: 3880 mg/m3 | NOAEL (short-term, duration: 28 days, inhalation, F, Wistar, Adrenal: Adrenal Gland Histopathology + Bladder: Urinary Bladder Histopathology + Blood: Albumin/Globulin (A/G) Ratio + Blood: Hematocrit (…): 259000 mg/m3 | NOAEL (short-term, duration: 28 days, inhalation, F, Wistar, Blood: Albumin/Globulin (A/G) Ratio + Blood: Hematology, Unspecified + Liver: Albumin (A) + Liver: Liver Histopathology + Multi-Organ: …): 245000 mg/m3 | LOAEL [2]: 259000 mg/m3 | NOAEL [2]: 129000 mg/m3 | LOAEL [3]: 245000 mg/m3 | NOAEL [3]: 125000 mg/m3 | LOAEL [4]: 125000 mg/m3 | NOAEL [4]: 49600 mg/m3 | LOAEL [5]: 129000 mg/m3 | NOAEL [5]: 51700 mg/m3 | LOAEL (short-term, duration: 28 days, inhalation, F, Wistar, Liver: Peroxisome Induction + Liver: Phospholipid + Liver: Triglycerides (TRIG) + Spleen: Spleen Weight, Absolute + Spleen: Spleen Weight, …): 12900 mg/m3 | LOAEL (short-term, duration: 28 days, inhalation, F, Wistar, Liver: Peroxisome Induction + Liver: Phospholipid + Spleen: Spleen Weight, Absolute + Spleen: Spleen Weight, Relative): 12400 mg/m3 | LOAEL [6]: 51700 mg/m3 | NOAEL [6]: 12900 mg/m3 | NOAEL (short-term, duration: 28 days, inhalation, M, Wistar, Adrenal: Adrenal Gland Histopathology + Bladder: Urinary Bladder Histopathology + Blood: Hematocrit (HCT) + Blood: Hemoglobin (HGB) + Blood…): 259000 mg/m3 | NOAEL (short-term, duration: 28 days, inhalation, M, Wistar, Blood: Albumin/Globulin (A/G) Ratio + Blood: Hematology, Unspecified + Kidney: Creatinine (CREAT) + Liver: Phospholipid + Multi-Organ: Gamma…): 245000 mg/m3 | LOAEL (short-term, duration: 28 days, inhalation, M, Wistar, Blood: Albumin/Globulin (A/G) Ratio + Liver: Liver Histopathology + Liver: Liver Weight, Absolute + Liver: Liver Weight, Relative + Liver: …): 12900 mg/m3 | LOAEL [7]: 259000 mg/m3 | NOAEL [7]: 129000 mg/m3 | LOAEL [8]: 125000 mg/m3 | NOAEL [8]: 49600 mg/m3 | LOAEL [9]: 49600 mg/m3 | NOAEL [9]: 12400 mg/m3 | LOAEL [10]: 51700 mg/m3 | NOAEL [10]: 12900 mg/m3 | LOAEL (short-term, duration: 28 days, inhalation, M, Wistar, Liver: Liver Histopathology + Liver: Liver Weight, Absolute + Liver: Liver Weight, Relative + Liver: Peroxisome Induction): 12400 mg/m3 | LOAEL [11]: 129000 mg/m3 | NOAEL [11]: 51700 mg/m3 | LOAEL [12]: 245000 mg/m3 | NOAEL [12]: 125000 mg/m3 | LOAEL [13]: 38800 mg/m3 | NOAEL [13]: 12900 mg/m3 | NOAEL (subchronic, duration: 91 days, inhalation, F, Wistar, Blood: Albumin/Globulin (A/G) Ratio, Recovery + Blood: Mean Corpuscular Hemoglobin (MCH) + Blood: Mean Corpuscular Volume (MCV) + Blood: Red…): 38800 mg/m3 | LOAEL [14]: 12900 mg/m3 | NOAEL [14]: 3880 mg/m3 | LOAEL (subchronic, duration: 91 days, inhalation, F, Wistar, Spleen: Spleen Weight, Absolute): 3880 mg/m3 | LOAEL (subchronic, duration: 91 days, inhalation, M, Wistar, Blood: Albumin/Globulin (A/G) Ratio + Kidney: Kidney Weight, Absolute + Kidney: Kidney Weight, Relative + Liver: Liver Weight, Absolute + …): 3880 mg/m3 | NOAEL (subchronic, duration: 91 days, inhalation, M, Wistar, Blood: Albumin/Globulin (A/G) Ratio, Recovery + Brain: Brain Weight, Absolute + Brain: Brain Weight, Relative + Eye: Ophthalmology, …): 38800 mg/m3 | LOAEL [15]: 12900 mg/m3 | NOAEL [15]: 3880 mg/m3 | LOAEL [16]: 38800 mg/m3 | NOAEL [16]: 12900 mg/m3

FC(F)=C(F)OC(F)(F)C(F)(F)C(F)(F)F [Perfluoropropyl trifluorovinyl ether]
LOAEL (reproduction developmental, duration: 28 days, inhalation, M, Sprague-Dawley, generation: P0, P0: Cardiovascular: Aorta: Aorta Histopathology + P0: Cardiovascular: Heart: Heart Histopathology + P0: Cardiovascular: Heart: Heart Weight…): 43900 mg/m3 | LOAEL [17]: 43900 mg/m3 | NOAEL [17]: 10900 mg/m3 | LOAEL (reproduction developmental, duration: 50 days, inhalation, F, Sprague-Dawley, generation: P0, P0: Cardiovascular: Aorta: Aorta Histopathology + P0: Cardiovascular: Heart: Heart Histopathology + P0: Cardiovascular: Heart: Heart Weight…): 43900 mg/m3 | LOAEL [18]: 43900 mg/m3 | NOAEL [18]: 10900 mg/m3 | NEL (short-term, duration: 3 weeks, inhalation, F, Alpk:Albino, Multi-organ: Uterus and Gonad (Unspecified) Histopathology): 54400 mg/m3 | NEL (short-term, duration: 3 weeks, inhalation, M/F, Alpk:Albino, Blood: Potassium (K), Blood + Blood: Sodium (Na), Blood + Heart: Heart Histopathology + Kidney: Glucose (GLU), Urine + Kidney: Protein, …): 54400 mg/m3 | LEL [19]: 54400 mg/m3 | NEL [19]: 27200 mg/m3 | NEL (short-term, duration: 3 weeks, inhalation, M, Alpk:Albino, Multi-organ: Epididymis and Gonad (Unspecified) Histopathology): 54400 mg/m3

Cc1ccc(S(=O)(=O)NC(=O)Nc2cccc(OS(=O)(=O)c3ccc(C)cc3)c2)cc1 [Pergafast 201]
LOEL [20]: 150 mg/kg-day | NOEL [20]: 50 mg/kg-day | LOEL (chronic, duration: 92 days, F, Wistar, liver: absolute liver weight + liver: relative liver weight): 12.5 mg/kg-day | LOEL [21]: 150 mg/kg-day | NOEL [21]: 50 mg/kg-day | LOEL [22]: 150 mg/kg-day | NOEL [22]: 30 mg/kg-day | LOEL [23]: 750 mg/kg-day | NOEL [23]: 150 mg/kg-day | LOEL (short-term, duration: 28 days, M, Wistar, brain: relative brain weight + liver: absolute liver weight): 30 mg/kg-day | LOEL [24]: 150 mg/kg-day | NOEL [24]: 30 mg/kg-day
